Experimental data: the supplement of paper PMC11208160

Test: recombinant UMI read abundance after kanamycin selection (control-corrected) (log10(CPM+1)); higher = more efficient recombination; extreme values may be limits of the assay; sequences stand for … in AGTGCAGAGAAAATCGGCCAGTTTTCTCTGCCTGCAGTCCGCATGCCGTGGGACCCCTTGGGTTCTAACCTGTTGCCTAGATTTATGCAGCGGACTGCCTTTCTCCCAAAGTGATAAACCGG…AGGTTGGTTTCACT; site = the 11-nt donor
Procedure, shortened: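 Under IPTG (0.07 mM) plus kanamycin, or without selection, Escherichia coli carrying a UMI-tagged donor and donor-binding-loop pair library and a target plasmid for the IS621 bridge recombinase were plated in two replicates. Recombinant UMIs were PCR-amplified across the donor–target junction and sequenced. Counts were converted to CPM, averaged over replicates, scaled by control-derived factors and reported as log10(CPM+1).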
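Further: IS621 bridge recombinase in Escherichia coli cells against a fixed T5 target plasmid.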

Row | Sequence | recombinant UMI read abundance (log10)
1 | TAATGAGCATGGACCGGTTTTCCCGGTAATCCGTATTTGGG (site GAATGAGCTCC) | 0.00249
2 | TAATGAGCATGGACCGGTTTTCCCGGTAATCCGTATTTGGG (site TAAAGAGCTCC) | 0.00438
3 | TAATGAGCATGGACCGGTTTTCCCGGTAATCCGTATTTGGG (site TAACGAGCTCC) | 0.0128
4 | TAATGAGCATGGACCGGTTTTCCCGGTAATCCGTATTTGGG (site TAAGGAGCTCC) | 0.0167
5 | TAATGAGCATGGACCGGTTTTCCCGGTAATCCGTATTTGGG (site TAATAAGCTCC) | 0.0171
6 | TAATGAGCATGGACCGGTTTTCCCGGTAATCCGTATTTGGG (site TAATCAGCTCC) | 0.0102
7 | TAATGAGCATGGACCGGTTTTCCCGGTAATCCGTATTTGGG (site TAATGAACTCC) | 0.0101
8 | TAATGAGCATGGACCGGTTTTCCCGGTAATCCGTATTTGGG (site TAATGACCTCC) | 0.00784
9 | TAATGAGCATGGACCGGTTTTCCCGGTAATCCGTATTTGGG (site TAATGAGCTAC) | 0.0203
10 | TAATGAGCATGGACCGGTTTTCCCGGTAATCCGTATTTGGG (site TAATGAGCTCA) | 0.00405
11 | TAATGAGCATGGACCGGTTTTCCCGGTAATCCGTATTTGGG (site TAATGAGCTCC) | 0.304
12 | TAATGAGCATGGACCGGTTTTCCCGGTAATCCGTATTTGGG (site TAATGAGCTCG) | 0.0101
13 | TAATGAGCATGGACCGGTTTTCCCGGTAATCCGTATTTGGG (site TAATGAGCTCT) | 0.0248
14 | TAATGAGCATGGACCGGTTTTCCCGGTAATCCGTATTTGGG (site TAATGAGCTGC) | 0
15 | TAATGAGCATGGACCGGTTTTCCCGGTAATCCGTATTTGGG (site TAATGAGCTTC) | 0.0139
16 | TAATGAGCATGGACCGGTTTTCCCGGTAATCCGTATTTGGG (site TAATGATCTCC) | 0
17 | TAATGAGCATGGACCGGTTTTCCCGGTAATCCGTATTTGGG (site TAATGCGCTCC) | 0.00982
18 | TAATGAGCATGGACCGGTTTTCCCGGTAATCCGTATTTGGG (site TAATGGGCTCC) | 0.0142
19 | TAATGAGCATGGACCGGTTTTCCCGGTAATCCGTATTTGGG (site TAATGTGCTCC) | 0
20 | TAATGAGCATGGACCGGTTTTCCCGGTAATCCGTATTTGGG (site TAATTAGCTCC) | 0.00449
21 | TAATGAGCATGGACCGGTTTTCCCGGTAATCCGTATTTGGG (site TACTGAGCTCC) | 0.00582
22 | TAATGAGCATGGACCGGTTTTCCCGGTAATCCGTATTTGGG (site TAGTGAGCTCC) | 0.0336
23 | TAATGAGCATGGACCGGTTTTCCCGGTAATCCGTATTTGGG (site TATTGAGCTCC) | 0.0136
24 | TAATGAGCATGGACCGGTTTTCCCGGTAATCCGTATTTGGG (site TCATGAGCTCC) | 0.203
25 | TAATGAGCATGGACCGGTTTTCCCGGTAATCCGTATTTGGG (site TGATGAGCTCC) | 0.00873

Row | Sequence | recombinant UMI read abundance (log10)
26 | TAATGAGCATGGACCGGTTTTCCCGGTAATCCGTATTTGGG (site TTATGAGCTCC) | 0.0156
27 | TAATGCTCATGGACCGGTTTTCCCGGTAATCCGTATTTGAA (site AAATGCTCTTT) | 0.111
28 | TAATGCTCATGGACCGGTTTTCCCGGTAATCCGTATTTGAA (site CAATGCTCTTT) | 0.61
29 | TAATGCTCATGGACCGGTTTTCCCGGTAATCCGTATTTGAA (site GAATGCTCTTT) | 0.106
30 | TAATGCTCATGGACCGGTTTTCCCGGTAATCCGTATTTGAA (site TAATGCTCTTT) | 1.19
31 | TAATGTCCATGGACCGGTTTTCCCGGTAATCCGTATTTGTA (site TAAAGTCCTTA) | 0.459
32 | TAATGTCCATGGACCGGTTTTCCCGGTAATCCGTATTTGTA (site TAACGTCCTTA) | 0.254
33 | TAATGTCCATGGACCGGTTTTCCCGGTAATCCGTATTTGTA (site TAAGGTCCTTA) | 0.586
34 | TAATGTCCATGGACCGGTTTTCCCGGTAATCCGTATTTGTA (site TAATGTCCTTA) | 0.766
35 | TAATTAGCATGGACCGGTTTTCCCGGTAATCCGTATTTGGG (site TAATAAGCTCC) | 0.00264
36 | TAATTAGCATGGACCGGTTTTCCCGGTAATCCGTATTTGGG (site TAATCAGCTCC) | 0.0055
37 | TAATTAGCATGGACCGGTTTTCCCGGTAATCCGTATTTGGG (site TAATGAGCTCC) | 0.0311
38 | TAATTAGCATGGACCGGTTTTCCCGGTAATCCGTATTTGGG (site TAATTAGCTCC) | 0.0073
39 | TAATTCACATGGACCGGTTTTCCCGGTAATCCGTATTTGGG (site TAATTCACTCC) | 0.0061
40 | TAATTGGCATGGACCGGTTTTCCCGGTAATCCGTATTTGTG (site TAATTGGCTCA) | 0.484
41 | TAATTGGCATGGACCGGTTTTCCCGGTAATCCGTATTTGTG (site TACTTGGCTCA) | 0.0115
42 | TAATTGGCATGGACCGGTTTTCCCGGTAATCCGTATTTGTG (site TAGTTGGCTCA) | 0.0118
43 | TAATTGGCATGGACCGGTTTTCCCGGTAATCCGTATTTGTG (site TATTTGGCTCA) | 0.00466
44 | TACAAGGCATGGACCGGTTTTCCCGGTAATCCGTATTTGGT (site TACAAGGCTAC) | 0.732
45 | TACACCGCATGGACCGGTTTTCCCGGTAATCCGTATTTGTA (site TACACCGCTTA) | 1.36
46 | TACACTTCATGGACCGGTTTTCCCGGTAATCCGTATTTGGC (site TACACTTCTGC) | 0
47 | TACAGGCCATGGACCGGTTTTCCCGGTAATCCGTATTTGAC (site TACAGGCCTGT) | 0
48 | TACATCTCATGGACCGGTTTTCCCGGTAATCCGTATTTGTG (site TACATCTCTCA) | 0.976
49 | TACATGACATGGACCGGTTTTCCCGGTAATCCGTATTTGCT (site TACATGACTAG) | 2.15
50 | TACATGACATGGACCGGTTTTCCCGGTAATCCGTATTTGCT (site TACCTGACTAG) | 0.938

Row | Sequence | recombinant UMI read abundance (log10)
51 | TACATGACATGGACCGGTTTTCCCGGTAATCCGTATTTGCT (site TACGTGACTAG) | 0.566
52 | TACATGACATGGACCGGTTTTCCCGGTAATCCGTATTTGCT (site TACTTGACTAG) | 0.0568
53 | TACCCTGCATGGACCGGTTTTCCCGGTAATCCGTATTTGCA (site TACCCTGCTTG) | 0
54 | TACCGAACATGGACCGGTTTTCCCGGTAATCCGTATTTGGA (site TACCGAACTTC) | 0.277
55 | TACCTTACATGGACCGGTTTTCCCGGTAATCCGTATTTGCG (site TACCTTACTCG) | 0.0203
56 | TACGATGCATGGACCGGTTTTCCCGGTAATCCGTATTTGCT (site TACGATGCTAG) | 1.98
57 | TACGCCACATGGACCGGTTTTCCCGGTAATCCGTATTTGAG (site TACGCCACTCT) | 0.652
58 | TACGGTACATGGACCGGTTTTCCCGGTAATCCGTATTTGGT (site TACGGTACTAC) | 0.321
59 | TACGTTTCATGGACCGGTTTTCCCGGTAATCCGTATTTGCC (site TACGTTTCTGG) | 1.7
60 | TACTAATCATGGACCGGTTTTCCCGGTAATCCGTATTTGGG (site TACTAATCTCC) | 0.0128
61 | TACTCAGCATGGACCGGTTTTCCCGGTAATCCGTATTTGGA (site TACTCAGCTTC) | 0.619
62 | TACTCCGCATGGACCGGTTTTCCCGGTAATCCGTATTTGTC (site TACTCCGCTGA) | 2.18
63 | TACTGACCATGGACCGGTTTTCCCGGTAATCCGTATTTGGA (site TACTGACCTTC) | 0.0192
64 | TACTGACCATGGACCGGTTTTCCCGGTAATCCGTATTTGGG (site TACTGACCTCC) | 0.0283
65 | TAGAATACATGGACCGGTTTTCCCGGTAATCCGTATTTGCA (site AAGAATACTTG) | 0.559
66 | TAGAATACATGGACCGGTTTTCCCGGTAATCCGTATTTGCA (site CAGAATACTTG) | 0.572
67 | TAGAATACATGGACCGGTTTTCCCGGTAATCCGTATTTGCA (site GAGAATACTTG) | 0.196
68 | TAGAATACATGGACCGGTTTTCCCGGTAATCCGTATTTGCA (site TAAAATACTTG) | 0.792
69 | TAGAATACATGGACCGGTTTTCCCGGTAATCCGTATTTGCA (site TACAATACTTG) | 0.745
70 | TAGAATACATGGACCGGTTTTCCCGGTAATCCGTATTTGCA (site TAGAAAACTTG) | 0.00693
71 | TAGAATACATGGACCGGTTTTCCCGGTAATCCGTATTTGCA (site TAGAACACTTG) | 0
72 | TAGAATACATGGACCGGTTTTCCCGGTAATCCGTATTTGCA (site TAGAAGACTTG) | 0.00484
73 | TAGAATACATGGACCGGTTTTCCCGGTAATCCGTATTTGCA (site TAGAATACTAG) | 0
74 | TAGAATACATGGACCGGTTTTCCCGGTAATCCGTATTTGCA (site TAGAATACTCG) | 0
75 | TAGAATACATGGACCGGTTTTCCCGGTAATCCGTATTTGCA (site TAGAATACTGG) | 0
